Data published in patent US12558345B2, “CHK1/2 inhibitors for use in the treatment of neuroblastomas and/or soft tissue sarcomas” (Eli Lilly and Company, priority 2015, dated 2026).
Where a name gives a salt, the structure may show the parent alone.

Legend:
[1] = system: Alveoloar Rhabdomyosarcoma xenograft models; assay: Sarcoma xenograft models by tumor subtype: Alveolar Rhabdomyosarcoma; type: in vivo, mouse; conditions: age of patients 17-24 years
Description: (§1) The efficacy of 5-(5-(2-(3-aminopropoxy)-6-methoxyphenyl)-1H-pyrazol-3-ylamino)pyrazine-2-carbonitrile methanesulfonic acid monohydrate is measurable in vivo in mouse models of neuroblastomas and human pediatric and adult sarcomas. 5-(5-(2-(3-Aminopropoxy)-6-methoxyphenyl)-1H-pyrazol-3-ylamino)pyrazine-2-carbonitrile methanesulfonic acid monohydrate (10 mg/kg) can be administered subcutaneously to nude mice bearing either cell-derived xenografts (CDX) or patient-derived xenografts (PDX) of human rhabdomyosarcoma, desmoplastic small round cell tumor (DSRCT), osteosarcoma, and Ewing's sarcoma using a 3 day on, 4 day off b.i.d. dosing schedule. Tumor volume and body weight can be measured two times per week. Tumor-specific parameters can be evaluated by immumohistochemistry.
Expand human RMS cancer cells SJCRH-30 (St. Jude Children's Research Hospital) in culture, harvest, and inject 5×10^6 cells in 200 μL of HBSS subcutaneously into the right rear flank of female athymic nude mice (20-22 g, Harlan Laboratories). […]
(§2) For all “ST” models (encompassing RMS and LMS), patient-derived xenografts are established from viable human tumor tissue and are serially passaged in animals a limited number of times to maintain tumor heterogeneity. […] Tumor response is determined by tumor volume measurement performed twice per week during the course of treatment.

[2] = system: CTG-0243 OS patient-derived xenograft; assay: Xenograft Tumor Model CTG-0243; type: in vivo, mouse; conditions: comparator day 22, p-value 0.089
Description: as §1, with “immumohistochemistry. […]” for “immumohistochemistry.”
as §2

[3] = system: Osteosarcoma xenograft models; assay: Sarcoma xenograft models by tumor subtype: Osteosarcoma; type: in vivo, mouse; conditions: age of patients 11-19 years
Description: as §1, with “immumohistochemistry. […]” for “immumohistochemistry.”
as §2

[4] = system: G2M DNA damage checkpoint (pHH3) in HeLa cells; assay: Doxorubicin-Induced G2M Checkpoint Abrogation HeLa Cell-Based Acumen Assay; conditions: Homo sapiens, 125 nM doxorubicin 24 hours, compound seven hours, Relative EC50
Description: An inhibitor of CHK1 will disable the G2M DNA damage checkpoint in p53-minus tumor cells treated with the topoisomerase II inhibitor, doxorubicin. A measurement of G2M checkpoint abrogation is the phosphorylation of histone H3 on serine 10 that occurs after cells traverse the G2M checkpoint and enter mitosis. The following high content imaging assay can be used to measure the phosphorylation of histone H3 in cells. HeLa cells (purchased from ATCC) are cultured in MEM Media (Gibco™) supplemented with 10% (v/v) FBS and plated at 2000 cells per well in poly D-lysine coated clear bottom black plates (BD Biocoat Cat #3504640), 100 μL volume per well. Plates are then incubated in a cell culture incubator for 18-24 hours (37° C., 5% CO2 and 95% relative humidity). […] Plates are scanned with ACUMEN EXPLORER™ Laser-scanning fluorescence microplate cytometers using 488 nm excitation (TTP LABTECH LTC) to measure pHH3 and DNA content including 2 N, and 4 N. The pHH3 positive cells are identified by mean intensity at 519 nm from Alexa 488. […] The final readout for each population is determined by normalizing to the % of total cells producing a final assay output of % pHH3, %2 N and %4 N. 100% activity is then determined by treating cells with the maximum concentration of an inhibitor control compound at 100 nM to determine the final % activity of each compound. […]

Compound | Result of Treatment: Complete Response (models) [1] | % T/C [2] | Result of Treatment: Stable Disease (models) [3] | EC50 [4]
COc1cccc(OCCCN)c1-c1cc(Nc2cnc(C#N)cn2)n[nH]1 [Example 5, 5-(5-(2-(3-Aminopropoxy)-6-methoxyphenyl)-1H-pyrazol-3-ylamino)pyrazine-2-carbonitrile methanesulfonic acid monohydrate] | 2/2 Complete | 43% | 1/4 Stable Disease | –
COc1cccc(OCCCN)c1-c1cc(Nc2cnc(C#N)cn2)n[nH]1 [Example 2, 5-(5-(2-(3-Aminopropoxy)-6-methoxyphenyl)-1H-pyrazol-3-ylamino)pyrazine-2-carbonitrile dihydrogen chloride salt] | – | – | – | 10.5 nM
